Source: patent US12172988B2, “Anticancer and antifungal splice modulators” (priority 2021, dated 2024)
Where two headings read alike, the source gives them in different places.

Tests used:
DNAJB1 = assay: qPCR splicing analysis, DNAJB1 intron retention; type: cell-based, human; details: for DNAJB1 intron retention: HCT116, 24 h, 100, 250, 500 nM, compared to 1
Description: (§1) HCT116 tumor cells were treated with each analogue at 20 times the G150 value (Table 12) for 4 hours and then cellular RNA was isolated and purified for qPCR. Primers were designed to evaluate intron retention or exon skipping, direct responses to splice modulator treatment. Genes evaluated included those involved in splicing regulation (SF3A1, SF3A3, SF3B1, SF3B2), apoptosis (MCL-1L), protein folding (DNAJB1), and cell cycle regulation (AURKA, PLK-1) relative to the unspliced control GAPDH. For alternative splicing regulator (SF2), primers were designed to evaluate gene expression, which changes in response splice modulator treatment for SF2 relative to the unspliced control GAPDH. (−) denotes untreated cells.
as §1, with “analogues” for “each analogue”, “100 nM (light grey), 250 nM (grey), or 500 nM (black)” for “20 times the G150 value (Table 12)”, “24 h” for “4 hours”, “(MCL-1L), and” for “(MCL-1L),”, “(DNAJB1),” for “(DNAJB1), and cell cycle regulation (AURKA, PLK-1)”, “(—)” for “(−)”
(§2) Next, we turned our efforts to explore the ability of these analogues to modulate splicing. […] We treated cells for 4 h so that we could evaluate early changes in splicing activity, and then cellular RNA was isolated and purified for analyses by qPCR (FIG. 14). Most importantly, none of the concentrations tested led to significant changes in cell viability, ensuring that changes in gene expression were not due to cell death.
(§3) For these studies, we evaluated the expression of genes involved in splicing regulation (SF3A1, SF3A3, SF3B1, SF3B2), apoptosis (MCL-1L), protein folding (DNAJB1), and cell cycle regulation (AURKA, PLK-1) relative to the unspliced control GAPDH. Primers were designed to evaluate intron retention or exon skipping, direct responses to splice modulator treatment. The master splicing regulator alternative splicing factor (SF2) was also evaluated, with the primers for this gene designed to evaluate overall gene expression, which changes in response to splice modulator treatment.
(§4) From this 4 h study (FIG. 14), a small set of analogs (1, 1b, 1g, 1d, 1e, 1i and 1j) were selected to evaluate if effects on splicing when presented for a longer 24 h period. […] Using identical procedures as that used for 4 h, HCT116 cells were treated with three concentrations (100 nM, 250 nM and 500 nM) of each analog for 24 h. Multiple concentrations were used as a means to check further validate the use of the GI50 concentration in our prior study (FIG. 14). As before, none of the concentrations tested led to significant changes in cell viability over the 24-hour time window, ensuring that changes in gene expression were not due to cell death.
(§5) Cells were treated with 1 or 1a-1j in media (McCoy's 5a (Life Technologies) supplemented with 10% FBS, 2 mM L-glutamine, and 100 U mL^−1 of penicillin and 100 μg mL^−1 of streptomycin 0.5% DMSO) for 4 h or 24 h. Untreated cells were considered were used as negative control. Total RNA was isolated using mirVana miRNA isolation kit (Life Technologies). […]

SF3A1 = assay: qPCR splicing analysis, SF3A1 intron retention; type: cell-based, human; details: for SF3A1 intron 6 retention (level of intron retention): HCT116, 4 h, 20 times GI50, qPCR relative to GAPDH
Description: as §1
as §1, with “analogues” for “each analogue”, “100 nM (light grey), 250 nM (grey), or 500 nM (black)” for “20 times the G150 value (Table 12)”, “24 h” for “4 hours”, “(MCL-1L), and” for “(MCL-1L),”, “(DNAJB1),” for “(DNAJB1), and cell cycle regulation (AURKA, PLK-1)”, “(—)” for “(−)”
as §2, §3, §4
as §5, with “Technologies). A 1 μg sample of RNA was subjected to DNAseI from a TURBO DNA free kit (Life Technologies). The cDNA was prepared by using SuperScript III reverse transcriptase kit (Life Technologies).” for “Technologies).”

SF2 = assay: qPCR gene expression of alternative splicing factor SF2; type: cell-based, human; details: for SF2 RNA expression: HCT116, 24 h, 100, 250, 500 nM, compared to 1
Description: as §1
as §1, with “analogues” for “each analogue”, “100 nM (light grey), 250 nM (grey), or 500 nM (black)” for “20 times the G150 value (Table 12)”, “24 h” for “4 hours”, “(MCL-1L), and” for “(MCL-1L),”, “(DNAJB1),” for “(DNAJB1), and cell cycle regulation (AURKA, PLK-1)”, “(—)” for “(−)”
as §2, §3
From this 4 h study (FIG. 14), a small set of analogs (1, 1b, 1g, 1d, 1e, 1i and 1j) were selected to evaluate if effects on splicing when presented for a longer 24 h period. […] Using identical procedures as that used for 4 h, HCT116 cells were treated with three concentrations (100 nM, 250 nM and 500 nM) of each analog for 24 h. […]

[1] = compared with C16-C17 isomers / pladienolides, cited from earlier work
[2] = in vivo; cited from earlier work
SF3A3 = assay: qPCR splicing analysis, SF3A3 intron retention; type: cell-based, human; details: HCT116, 24 h, 100, 250, 500 nM
Description: as §1
HCT116 tumor cells were treated with analogues at 100 nM (light grey), 250 nM (grey), or 500 nM (black) for 24 h and then cellular RNA was isolated and purified for qPCR. […] Genes evaluated included those involved in splicing regulation (SF3A1, SF3A3, SF3B1, SF3B2), apoptosis (MCL-1L), and protein folding (DNAJB1), relative to the unspliced control GAPDH. […]
For these studies, we evaluated the expression of genes involved in splicing regulation (SF3A1, SF3A3, SF3B1, SF3B2), apoptosis (MCL-1L), protein folding (DNAJB1), and cell cycle regulation (AURKA, PLK-1) relative to the unspliced control GAPDH. […]

AURKA = assay: qPCR splicing analysis, AURKA exon skipping / expression; type: cell-based, human; details: HCT116, 24 h, 100, 250, 500 nM
Description: as §1
Next, we turned our efforts to explore the ability of these analogues to modulate splicing. […] We treated cells for 4 h so that we could evaluate early changes in splicing activity, and then cellular RNA was isolated and purified for analyses by qPCR (FIG. 14). […]
as §3, with “Primers were designed to evaluate intron retention or exon skipping, direct responses to splice modulator treatment.” left out, “treatment. […]” for “treatment.”
Cells were treated with 1 or 1a-1j in media (McCoy's 5a (Life Technologies) supplemented with 10% FBS, 2 mM L-glutamine, and 100 U mL^−1 of penicillin and 100 μg mL^−1 of streptomycin 0.5% DMSO) for 4 h or 24 h. […] The amount of unspliced RNA for different genes was determined using Power SYBR Green PCR master mix (Applied Biosystems) by qPCR using specific primers for each gene. qPCR using 2.5 μM of each primer was performed on 5 ng of the obtained cDNA. qPCR conditions were as follows: 95° C. for 10 min for one cycle, then 95° C. for 10 min for one cycle, then 95° C. for 30 s, 55° C. for 60 s, 72° C. for 60 s, for 40 cycles using the MXPro. […]

Compound | DNAJB1 intron retention (DNAJB1) | SF2 RNA expression (SF2) | AURKA expression (AURKA) | SF3A1 intron 6 retention (level of intron retention) (SF3A1) | further results
CC[C@H](OC)[C@@H](C)[C@H]1O[C@@H]1[C@@H](O)[C@H](C)/C=C/C=C(\C)[C@H]1OC(=O)C[C@H](O)CC[C@@](C)(O)[C@@H](OC(C)=O)/C=C/[C@@H]1C [Analog 1d, 17S-FD-895] | decreased level of intron retention | decreased effect at reducing | – | – | SF3A1 intron retention (SF3A1; HCT116, 24 h, 100, 250, 500 nM, compared to 1): concentration dependent increased intron retention; stability (words) [1]: increased stability; stability (words) ([1]; listed as 17S-FD-895): metabolically-improved; MTD [2]: 4 mg/kg
CC[C@H](OC)[C@@H](C)[C@H]1O[C@@H]1[C@@H](O)[C@H](C)/C=C/C=C(\C)[C@H]1OC(=O)C[C@@H](O)CC[C@@](C)(O)[C@@H](OC(C)=O)/C=C/[C@@H]1C [Analog 1g, 3S,17S-FD-895] | loss in intron retention | reduced ability to inhibit SF2 RNA expression | altered the expression of AURKA comparable to 1 | – | DNAJB1 intron 2 retention (level of intron retention) (DNAJB1; HCT116, 4 h, 20 times GI50, qPCR relative to GAPDH): highest level of intron retention; SF3A3 intron retention (SF3A3): concentration dependent increase intron retention; down regulating the expression of SF2 RNA (SF2; HCT116, 4 h, 20 times GI50, qPCR): highest efficacy
CC[C@H](OC)[C@@H](C)[C@@H]1O[C@H]1[C@@H](O)[C@H](C)/C=C/C=C(\C)[C@H]1OC(=O)C[C@H](O)CC[C@@](C)(O)[C@@H](OC(C)=O)/C=C/[C@@H]1C [Analog 1i, 17S,18S,19S-FD-895] | – | – | – | more effective than 1 | –
CC[C@@H](OC)[C@H](C)[C@H]1O[C@@H]1[C@@H](O)[C@H](C)/C=C/C=C(\C)[C@H]1OC(=O)C[C@H](O)CC[C@@](C)(O)[C@@H](OC(C)=O)/C=C/[C@@H]1C [Analog 1j, 17S,20S,21R-FD-895] | – | – | reducing the expression of AURKA at 500 nM | more effective than 1 | –
